Source: the supplement of paper PMC11061612

Legend:
Experiment in all cases: combination Emax (second highest fraction inhibited in the dose matrix, 72 h); higher = more inhibition; extreme values may be limits of the assay
[1] = test system: A4-Fuk (B-Lymphoblastic Leukemia)
Procedure, shortened: (§1)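 After 24 hours at 37°C and 5% CO2 in 1536-well plates, cells in DMEM/F12 or RPMI plus 10% FBS received two-drug dose matrices for 72 hours. Viability came from CellTiter-Glo 2.0 luminescence and was scaled as inhibition, anchored at 0 by vehicle wells and at 1 by blank wells. Combination Emax is taken as the second-highest inhibition in the matrix, and Bliss excess as the observed combination effect less EA + EB − EA·EB, with EA and EB the single-agent effects.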

[2] = test system: ALL-SIL (T-Lymphoblastic Leukemia)
Procedure, shortened: as §1

[3] = test system: CADO-ES1 (Ewing's Sarcoma)
Procedure, shortened: as §1

[4] = test system: COLO-668 (Small Cell Lung Carcinoma)
Procedure, shortened: as §1

[5] = test system: DU-145 (Prostate Carcinoma)
Procedure, shortened: as §1

[6] = test system: HCC1937 (Breast Carcinoma)
Procedure, shortened: as §1

[7] = test system: HCC2998 (Colorectal Carcinoma)
Procedure, shortened: as §1

[8] = test system: Hey (Ovarian Carcinoma)
Procedure, shortened: as §1

[9] = test system: LC-1-sq (Squamous Cell Lung Carcinoma)
Procedure, shortened: as §1

[10] = test system: MDA-MB-453 (Breast Carcinoma)
Procedure, shortened: as §1

[11] = test system: MOG-G-UVW (Low Grade Glioma)
Procedure, shortened: as §1

[12] = test system: NCI-H1092 (Small Cell Lung Carcinoma)
Procedure, shortened: as §1

[13] = test system: NCI-H1993 (Lung Adenocarcinoma)
Procedure, shortened: as §1

[14] = test system: NCI-H2122 (Lung Adenocarcinoma)
Procedure, shortened: as §1

[15] = test system: NCI-H522 (Lung Adenocarcinoma)
Procedure, shortened: as §1

[16] = test system: OACM5-1 (Esophageal Adenocarcinoma)
Procedure, shortened: as §1

[17] = test system: SK-LU-1 (Lung Adenocarcinoma)
Procedure, shortened: as §1

[18] = test system: SK-N-AS (Neuroblastoma)
Procedure, shortened: as §1

[19] = test system: SKN (Other Solid Carcinomas)
Procedure, shortened: as §1

[20] = test system: SW872 (Other Solid Carcinomas)
Procedure, shortened: as §1

| Compound | combination Emax [1] | combination Emax [2] | combination Emax [3] | combination Emax [4] | combination Emax [5] | combination Emax [6] | combination Emax [7] | combination Emax [8] | combination Emax [9] | combination Emax [10] | combination Emax [11] | combination Emax [12] | combination Emax [13] | combination Emax [14] | combination Emax [15] | combination Emax [16] | combination Emax [17] | combination Emax [18] | combination Emax [19] | combination Emax [20] |
| --- | --- | --- | --- | --- | --- | --- | --- | --- | --- | --- | --- | --- | --- | --- | --- | --- | --- | --- | --- | --- |
| COc1nnc2ccc(N3CCC(c4ccc(OCCN5CCN(C)C(=O)[C@H]5C)cc4)CC3)nn12 [AZD5153] + C=CCn1c(=O)c2cnc(Nc3ccc(N4CCN(C)CC4)cc3)nc2n1-c1cccc(C(C)(C)O)n1 [AZD1775] (first compound max 1 µM, partner max 1 µM) | 0.967 | 0.98 | 0.387 | 0.665 | 0.316 | 0.472 | 0.92 | 0.655 | 0.665 | 0.731 | 0.711 | 0.684 | 0.545 | 0.993 | 0.51 | 0.869 | 0.442 | 0.669 | 0.687 | 0.593 |
| CN(C)CCCOc1ccc(-c2ccc3ncc4c(c3c2)n(C2CCOCC2)c(=O)n4C)cn1 [AZD0156] + O=C(c1cc(Cc2n[nH]c(=O)c3ccccc23)ccc1F)N1CCN(C(=O)C2CC2)CC1 [Olaparib] (first compound max 3 µM, partner max 3 µM) | 0.553 | 0.175 | 0.739 | 0.179 | 0.0116 | 0.228 | 0.257 | 0.408 | 0.184 | 0.286 | 0.632 | 0.304 | 0.498 | 0.355 | 0.258 | 0.327 | 0.334 | 0.169 | 0.188 | 0.272 |
| NC1(C(=O)N[C@@H](CCO)c2ccc(Cl)cc2)CCN(c2ncnc3[nH]ccc23)CC1 [Capivasertib] + COc1nnc2ccc(N3CCC(c4ccc(OCCN5CCN(C)C(=O)[C@H]5C)cc4)CC3)nn12 [AZD5153] (first compound max 10 µM, 7x7, partner max 1 µM) | 0.95 | 0.841 | 0.356 | 0.786 | 0.251 | 0.44 | 0.872 | 0.556 | 0.815 | 0.93 | 0.835 | 0.364 | 0.676 | 0.817 | 0.381 | 0.805 | 0.381 | 0.445 | 0.725 | 0.553 |
| COc1nnc2ccc(N3CCC(c4ccc(OCCN5CCN(C)C(=O)[C@H]5C)cc4)CC3)nn12 [AZD5153] + CC1(C)CCC(CN2CCN(c3ccc(C(=O)NS(=O)(=O)c4ccc(NCC5CCOCC5)c([N+](=O)[O-])c4)c(Oc4cnc5[nH]ccc5c4)c3)CC2)=C(c2ccc(Cl)cc2)C1 [Venetoclax] (first compound max 1 µM, 7x7, partner max 1 µM) | 0.871 | 0.956 | 0.665 | 0.811 | 0.288 | 0.344 | 0.685 | 0.523 | 0.603 | 0.649 | 0.715 | 0.478 | 0.444 | 0.78 | 0.415 | 0.607 | 0.358 | 0.415 | 0.594 | 0.561 |
| Cn1cnc2c(F)c(Nc3ccc(Br)cc3Cl)c(C(=O)NOCCO)cc21 [Selumetinib] + C=CCn1c(=O)c2cnc(Nc3ccc(N4CCN(C)CC4)cc3)nc2n1-c1cccc(C(C)(C)O)n1 [AZD1775] (first compound max 10 µM, partner max 1 µM) | 0.948 | 0.881 | 0.294 | 0.47 | 0.239 | 0.562 | 0.806 | 0.719 | 0.696 | 0.206 | 0.72 | 0.371 | 0.83 | 0.985 | 0.177 | 0.642 | 0.46 | 0.817 | 0.353 | 0.29 |
| CCN(CCO)CCCOc1ccc2c(Nc3cc(CC(=O)Nc4cccc(F)c4)[nH]n3)ncnc2c1 [AZD2811] + C=CCn1c(=O)c2cnc(Nc3ccc(N4CCN(C)CC4)cc3)nc2n1-c1cccc(C(C)(C)O)n1 [AZD1775] (first compound max 1 µM, partner max 1 µM) | 0.852 | 0.966 | 0.454 | 0.42 | 0.251 | 0.471 | 0.599 | 0.497 | 0.864 | 0.301 | 0.771 | 0.259 | 0.458 | 0.897 | 0.218 | 0.339 | 0.416 | 0.728 | 0.236 | 0.289 |
| CS(=O)(=O)CCNCc1ccc(-c2ccc3ncnc(Nc4ccc(OCc5cccc(F)c5)c(Cl)c4)c3c2)o1 [Lapatinib] + C[C@@H](Oc1cc(-c2cnn(C3CCNCC3)c2)cnc1N)c1c(Cl)ccc(F)c1Cl [Crizotinib] (first compound max 10 µM, 7x7, partner max 10 µM) | 0.976 | 1 | 0.774 | 0.665 | 0.286 | 0.674 | 0.938 | 0.865 | 0.931 | 0.531 | 0.842 | 0.604 | 0.94 | 0.962 | 0.457 | 0.889 | 0.451 | 0.359 | 0.743 | 0.496 |
| CC(=O)c1c(C)c2cnc(Nc3ccc(N4CCNCC4)cn3)nc2n(C2CCCC2)c1=O [Palbociclib] + Cn1cnc2c(F)c(Nc3ccc(Br)cc3Cl)c(C(=O)NOCCO)cc21 [Selumetinib] (first compound max 10 µM, 7x7, partner max 10 µM) | 0.732 | 0.38 | 0.265 | 0.363 | 0.12 | 0.214 | 0.781 | 0.623 | 0.235 | 0.241 | 0.523 | 0.11 | 0.69 | 0.954 | 0.127 | 0.477 | 0.362 | 0.577 | 0.349 | 0.169 |
| Cc1c2c(nn1C)CSCc1cc(n(C)n1)CSc1cc(c3ccccc3c1)OCCCc1c(C(=O)O)n(C)c3c-2c(Cl)ccc13 [AZD5991] + C1CN(CCC1(C(=O)N[C@@H](CCO)C2=CC=C(C=C2)Cl)N)C3=NC=NC4=C3C=CN4 [Capivasertib] (first compound max 1 µM, 7x7, partner max 3 µM) | 1 | 1 | 0.927 | 0.303 | 0.187 | 0.456 | 0.902 | 0.156 | 0.217 | 0.61 | 0.444 | 0.534 | 0.461 | 0.608 | 0.507 | 0.969 | 0.303 | 0.692 | 0.455 | 0.282 |
| CN(C)CCCOc1ccc(-c2ccc3ncc4c(c3c2)n(C2CCOCC2)c(=O)n4C)cn1 [AZD0156] + C[C@@H]1COCCN1C2=NC(=NC(=C2)C3(CC3)[S@](=N)(=O)C)C4=C5C=CNC5=NC=C4 [AZD6738] (first compound max 1 µM, 7x7, partner max 10 µM) | 0.734 | 0.887 | 0.903 | 0.612 | 0.544 | 0.543 | 0.831 | 0.84 | 0.877 | 0.831 | 0.816 | 0.174 | 0.616 | 0.945 | 0.0837 | 0.57 | 0.474 | 0.805 | 0.344 | 0.552 |
| Cn1cnc2c(F)c(Nc3ccc(Br)cc3Cl)c(C(=O)NOCCO)cc21 [Selumetinib] + CC(C)n1c(=O)n(C)c2cnc3cc(F)c(-c4ccc(OCCCN5CCCCC5)nc4)cc3c21 [AZD1390] (first compound max 10 µM, 7x7, partner max 0.3 µM) | 0.404 | 0.25 | 0.175 | 0.421 | 0.16 | 0.208 | 0.719 | 0.549 | 0.184 | 0.171 | 0.346 | 0.0809 | 0.627 | 0.864 | 0.0811 | 0.209 | 0.264 | 0.422 | 0.113 | 0.203 |
| Cc1c2c(nn1C)CSCc1cc(n(C)n1)CSc1cc(c3ccccc3c1)OCCCc1c(C(=O)O)n(C)c3c-2c(Cl)ccc13 [AZD5991] + Cc1cc2ncnn2cc1Nc1ncc2c(n1)n(C1CCOCC1)c(=O)n2C [AZD7648] (first compound max 1 µM, 7x7, partner max 10 µM) | 1 | 1 | 0.893 | 0.187 | 0.23 | 0.362 | 0.899 | 0.316 | 0.269 | 0.381 | 0.271 | 0.583 | 0.492 | 0.597 | 0.362 | 0.923 | 0.399 | 0.59 | 0.305 | 0.258 |
| Cc1c2c(nn1C)CSCc1cc(n(C)n1)CSc1cc(c3ccccc3c1)OCCCc1c(C(=O)O)n(C)c3c-2c(Cl)ccc13 [AZD5991] + CN(C)CCCOc1ccc(-c2ccc3ncc4c(c3c2)n(C2CCOCC2)c(=O)n4C)cn1 [AZD0156] (first compound max 1 µM, 7x7, partner max 1 µM) | 1 | 0.986 | 0.946 | 0.222 | 0.192 | 0.333 | 0.952 | 0.254 | 0.258 | 0.298 | 0.247 | 0.562 | 0.474 | 0.656 | 0.387 | 0.928 | 0.3 | 0.614 | 0.278 | 0.226 |
